{"source": "patent US11472793B2", "about": "“Inhibitors of cysteine proteases and methods of use thereof” (priority 2020, dated 2022)", "key": {"229E mPRO": {"molecular_target": "229E mPRO (Human coronavirus 229E (HCoV-229E), UniProt P0C6X1)", "sequence (P0C6X1 2966-3267 limits assumed)": "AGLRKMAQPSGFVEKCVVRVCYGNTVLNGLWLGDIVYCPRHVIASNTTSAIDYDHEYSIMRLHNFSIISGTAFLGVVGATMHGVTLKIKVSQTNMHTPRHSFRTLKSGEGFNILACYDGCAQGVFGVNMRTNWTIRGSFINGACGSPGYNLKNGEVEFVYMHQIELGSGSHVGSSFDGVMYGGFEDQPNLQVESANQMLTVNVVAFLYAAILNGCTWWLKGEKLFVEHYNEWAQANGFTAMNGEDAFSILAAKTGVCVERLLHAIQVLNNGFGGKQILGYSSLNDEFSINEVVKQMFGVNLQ", "experiment": "229E mPRO enzymatic assay", "type": "biochemical, Human Coronavirus (HCov) 229E", "method": "Compounds were assayed using standard methods to assess compound activity and IC50. […] The assay buffer contained 20 mM of Tris-HCl (pH 7.3), 100 mM of NaCl, 1 mM of EDTA, 5 mM of TCEP and 0.1% BSA.\nThe compounds were added to an assay plate.\nIC50 values of compounds were calculated with the GraphPad Prism software using the nonlinear regression model of log(inhibitor) vs. response—Variable slope (four parameters). The inhibition activity was calculated using the formula below, IC50 values was calculated using the Inhibition % data. Inhibition %=[(Sample−Average ZPE)/(Average HPE−Average ZPE)]*100%\n^#HEP: Hundred percent effect controls. Containing substrate+enzyme+1 μM GC376.\nContaining enzyme+substrate, no compound.\nSample: Compound activity testing wells. Containing compound+enzyme+substrate.\nBG: Compound background control wells. Containing compound+substrate, no enzyme."}, "HCoV 229E": {"test_system": "HCoV 229E", "experiment": "HCoV 229E cytopathic effect (CPE) assay", "type": "cell-based, Human Coronavirus (HCov) 229E", "conditions": "read-out: 229E CPE EC50 (μM)", "method": "The antiviral activity of compounds was calculated based on the protection of the virus-induced CPE at each concentration normalized by the virus control.\nReagents and instruments used in this assay include luminescent cell viability assay kit CellTiter Glo (Promega) and Microplate Reader Synergy2 (BioTek).\nCytopathic effect (CPE) was measured by CellTiter Glo following the manufacturer's manual. The antiviral activity of compounds was calculated based on the protection of the virus-induced CPE at each concentration normalized by the virus control."}}, "note": "Read-outs that look alike come from different tables or passages of the source."}
{"compound": "COc1cccc2[nH]c(C(=O)N3C[C@@H]4CC[C@@H]4[C@H]3C(=O)N[C@H](C#N)C[C@@H]3CCNC3=O)cc12", "note": "(single isomer, unassigned) [547 (Isomer 2)]", "values": [{"measurement": "IC50", "setting": "229E mPRO; read-out: 229E mPRO IC50", "value": "< 2", "unit": "µM"}]}
{"compound": "N#C[C@H](C[C@@H]1CCCNC1=O)NC(=O)C1CC2(CCC2)CN1C(=O)c1cc2cccc(Cl)c2[nH]1", "note": "(single isomer, unassigned) [731 (Isomer 1)]", "values": [{"measurement": "IC50", "setting": "229E mPRO", "value": "< 2", "unit": "µM"}, {"measurement": "EC50", "setting": "HCoV 229E", "value": "< 2", "unit": "µM"}]}
{"compound": "N#C[C@H](C[C@@H]1CCCNC1=O)NC(=O)C1CC2(CN1C(=O)c1cc3cccc(Cl)c3[nH]1)CC(F)(F)C2", "note": "(single isomer, unassigned) [743 (Isomer 2)]", "values": [{"measurement": "IC50", "setting": "229E mPRO", "value": "< 2", "unit": "µM"}, {"measurement": "EC50", "setting": "HCoV 229E", "value": "< 2", "unit": "µM"}]}
{"compound": "N#C[C@H](C[C@@H]1CCCNC1=O)NC(=O)C1CC2(CCC2)CN1C(=O)c1cc2cccc(Cl)c2[nH]1", "note": "(single isomer, unassigned) [729 (Isomer 1)]", "values": [{"measurement": "IC50", "setting": "229E mPRO; read-out: 229E mPRO IC50", "value": "< 2", "unit": "µM"}]}
